Test results: PMC10766964, “Copper-catalyzed synthesis of pyrazolo[1,5-a]pyrimidine based triazole-linked glycohybrids: mechanistic insights and bio-applications” (Scientific Reports, 2024)

Tests used:
[1] = system: normal mammary epithelial MCF-10A cells; assay: MTT cell viability assay in normal MCF-10A cells; type: cell-based; conditions: tested at 25 µM, 50 µM and 100 µM
Protocol: (§1) We also included normal mammary epithelial MCF-10A cells in our experiments to confirm if the growth-inhibitory activities of the selected compounds are truly cancer cell-specific. The activity data from MCF-7 and MDA-MB-453 cell lines (tested at 1 µM, 10 µM and 25 µM) and activity data from MCF-10A cell line (tested at 25 µM, 50 µM and 100 µM) are summarized in Table 3. To evaluate cell viability, the MTT assay was conducted following standard procedures. After 72 h of cell incubation with or without each compound, cell viability was assessed using MTT (3-(4,5-dimethylthiazol-2-yl)-2,5-diphenyltetrazolium bromide), which is a colorimetric method for determining the number of viable cells in various assays including proliferation, cytotoxicity, or chemosensitivity. The MTT reagent was added to the cells after removal of the medium and incubated for 3 h at 37 °C in the CO2 incubator. The formazan product, which is […] in the tissue culture medium, was dissolved in DMSO, and the absorbance of the formazan product was directly measured at 595 nm using a multimode plate reader without additional processing. The absorbance values are directly proportional to the number of viable cells in culture. The percentage of viable cells in each group was determined relative to the untreated control cells.

[2] = MTT cell viability assay in normal MCF-10A cells; type: cell-based; conditions: human, MCF-10A normal mammary epithelial cells, MCF-10A normal cells, read-out: Cell viability (%) ± SD
Protocol: as §1

CC(=O)OC[C@H]1O[C@@H](n2cc(COc3cc(-c4ccc(C)cc4)nc4ccnn34)nn2)[C@H](OC(C)=O)[C@@H](OC(C)=O)[C@@H]1OC(C)=O [Compound 9a, (2R,3R,4S,5R,6R)-2-(acetoxymethyl)-6-(4-(((5-(p-tolyl)pyrazolo[1,5-a]pyrimidin-7-yl)oxy)methyl)-1H-1,2,3-triazol-1-yl)tetrahydro-2H-pyran-3,4,5-triyl triacetate]
growth inhibitory activity against normal breast epithelial cell (MCF-10A) (in words) [1]: none of these compounds did have any growth inhibitory activity
viability at 72 h, 25 µM [2]: 88.6 ± 1.5%
viability at 72 h, 50 µM [2]: 84.3 ± 2.9%
viability at 72 h, 100 µM [2]: 84.2 ± 3%

CC(=O)OC[C@H]1O[C@@H](n2cc(COc3cc(-c4ccc(Cl)cc4)nc4ccnn34)nn2)[C@H](OC(C)=O)[C@@H](OC(C)=O)[C@@H]1OC(C)=O [Compound 9d, (2R,3R,4S,5R,6R)-2-(acetoxymethyl)-6-(4-(((5-(4-chlorophenyl)pyrazolo[1,5-a]pyrimidin-7-yl)oxy)methyl)-1H-1,2,3-triazol-1-yl)tetrahydro-2H-pyran-3,4,5-triyl triacetate]
growth inhibitory activity against normal breast epithelial cell (MCF-10A) (in words) [1]: none of these compounds did have any growth inhibitory activity
viability at 72 h, 25 µM [2]: 87.8 ± 2.8%
viability at 72 h, 50 µM [2]: 85.6 ± 0.7%
viability at 72 h, 100 µM [2]: 82 ± 1.5%

CC(=O)OC[C@H]1O[C@@H](n2cc(COc3cc(-c4ccc5ccccc5c4)nc4ccnn34)nn2)[C@H](OC(C)=O)[C@@H](OC(C)=O)[C@@H]1OC(C)=O [Compound 9h, (2R,3R,4S,5R,6R)-2-(acetoxymethyl)-6-(4-(((5-(naphthalen-2-yl)pyrazolo[1,5-a]pyrimidin-7-yl)oxy)methyl)-1H-1,2,3-triazol-1-yl)tetrahydro-2H-pyran-3,4,5-triyl triacetate]
growth inhibitory activity against normal breast epithelial cell (MCF-10A) (in words) [1]: none of these compounds did have any growth inhibitory activity
viability at 72 h, 25 µM [2]: 86.8 ± 5.3%
viability at 72 h, 50 µM [2]: 88.8 ± 3%
viability at 72 h, 100 µM [2]: 68.5 ± 3.4%

CC(=O)OC[C@H]1O[C@@H](n2cc(COc3cc(-c4ccc(Cl)cc4)nc4ccnn34)nn2)[C@H](OC(C)=O)[C@@H](OC(C)=O)[C@H]1OC(C)=O [Compound 10d, (2R,3S,4S,5R,6R)-2-(acetoxymethyl)-6-(4-(((5-(4-chlorophenyl)pyrazolo[1,5-a]pyrimidin-7-yl)oxy)methyl)-1H-1,2,3-triazol-1-yl)tetrahydro-2H-pyran-3,4,5-triyl triacetate]
growth inhibitory activity against normal breast epithelial cell (MCF-10A) (in words) [1]: none of these compounds did have any growth inhibitory activity
viability at 72 h, 25 µM [2]: 89.6 ± 2.2%
viability at 72 h, 50 µM [2]: 85.6 ± 1.7%
viability at 72 h, 100 µM [2]: 84.4 ± 2.6%

CC(=O)OC[C@H]1O[C@@H](n2cc(COc3cc(-c4ccc(C(F)(F)F)cc4)nc4ccnn34)nn2)[C@H](OC(C)=O)[C@@H](OC(C)=O)[C@H]1OC(C)=O [Compound 10f, (2R,3S,4S,5R,6R)-2-(acetoxymethyl)-6-(4-(((5-(4-(trifluoromethyl)phenyl)pyrazolo[1,5-a]pyrimidin-7-yl)oxy)methyl)-1H-1,2,3-triazol-1-yl)tetrahydro-2H-pyran-3,4,5-triyl triacetate]
growth inhibitory activity against normal breast epithelial cell (MCF-10A) (in words) [1]: none of these compounds did have any growth inhibitory activity
viability at 72 h, 25 µM [2]: 86.6 ± 1.5%
viability at 72 h, 50 µM [2]: 88.1 ± 2.8%
viability at 72 h, 100 µM [2]: 84.2 ± 3%

CC(=O)OC[C@H]1O[C@H](n2cc(COc3cc(-c4ccc(C(C)C)cc4)nc4ccnn34)nn2)[C@@H](OC(C)=O)[C@@H](OC(C)=O)[C@@H]1OC(C)=O [Compound 11g, (2R,3R,4S,5S,6S)-2-(acetoxymethyl)-6-(4-(((5-(4-isopropylphenyl)pyrazolo[1,5-a]pyrimidin-7-yl)oxy)methyl)-1H-1,2,3-triazol-1-yl)tetrahydro-2H-pyran-3,4,5-triyl triacetate]
growth inhibitory activity against normal breast epithelial cell (MCF-10A) (in words) [1]: none of these compounds did have any growth inhibitory activity
viability at 72 h, 25 µM [2]: 89.8 ± 2.8%
viability at 72 h, 50 µM [2]: 84.2 ± 5.8%
viability at 72 h, 100 µM [2]: 88 ± 1.5%
